Measured values as given in patent publication US20240293318A1, “CLEAVABLE LINKER-CONTAINING IONIZABLE LIPIDS AND LIPID CARRIERS FOR THERAPEUTIC COMPOSITIONS” (Flagship Pioneering Innovations VII, LLC, priority 2023, published 2024).

Legend:
[1] = LNP size and polydispersity index by dynamic light scattering (DLS); format: physicochemical; conditions: hEPO mRNA, Lipid:Cholesterol:DSPC:PEG-2k 50:38.5:10:1.5, N:P 6
Description: (§1) Various lipid nanoparticle compositions comprising a nucleic acid payload are characterized by a variety of methods. For example, dynamic light scattering (DLS) is used to determine particle sizes (Wyatt Dynapro Platereader 111). In addition, instruments such as the Zetasizer Nano ZS (Malvern Instruments Ltd) are used to measure multiple physical properties of a lipid nanoparticle composition, such as particle size, polydispersity index (PDI), and zeta potential. Fluorescence-based assays are used to determine the efficiencies of nucleic acid encapsulation in the lipid nanoparticles. Fluorescence-based assays are used to determine the “apparent pKa” of the lipid nanoparticles. Both fluorescence assays are evaluated on a Varioskanlux plate reader (ThermoScientific).
After formulation and processing of the lipid nanoparticle compositions, the Z-average size of lipid nanoparticle composition are assayed by dynamic light scattering (DLS) (e.g., using a Wyatt Dynapro Platereader III or Malvern Zetasizer ZS). Briefly, an aliquot of 2 uL of the processed nanoparticle composition mixture (at an RNA concentration of approximately 0.5 mg/mL) is diluted into 50 uL phosphate buffered saline (0.1×PBS) and loaded into a 384 well plate. The sample is then analyzed to determine nanoparticle size.
(§2) LNPs were characterized by dynamic light scattering (DLS) measurement for measuring its hydrodynamic radius and polydispersity index (PDI). Encapsulation efficiency (EE %) and total RNA concentration were quantitated using a fluorescence based Ribogreen assay.

[2] = Zeta potential assay of LNPs; format: physicochemical; conditions: LNP, hEPO mRNA, Lipid:Cholesterol:DSPC:PEG-2k 50:38.5:10:1.5, N:P 6
Description: as §1
A Zetasizer Nano ZS (Malvern Instruments Ltd) is used to determine the zeta potential of the nanoparticle compositions. Briefly, a 5 uL aliquot of an approximately 0.5 mg mRNA/mL sample is diluted into 800 uL 0.1×PBS. This sample is then transferred to a disposable conducting cuvette and the zeta potential is measured.

[3] = Encapsulation efficiency, fluorescence based Ribogreen assay; format: physicochemical; conditions: LNP, hEPO mRNA, Lipid:Cholesterol:DSPC:PEG-2k 50:38.5:10:1.5, N:P 6
Procedure: For lipid nanoparticle formulations containing an RNA, a QUANTIT™ RIBOGREEN® RNA assay (Invitrogen Corporation) is used to evaluate the encapsulation of RNA within the lipid nanoparticle formulation.
The samples are diluted to ˜10 ug/ml in TE buffer. In a 96 well plate, 50 ul of the diluted sample is added to 50 uL TE buffer in duplicates and 20 uL of diluted sample is added to 80 uL Triton X buffer (2% triton in TE buffer) in duplicates. The plate is incubated for 10 minutes at room temperature. Next, RIBOGREEN® is diluted 1:200 in TE BUFFER, and 100 uL is added to each sample well. The fluorescence intensity is measured using a fluorescence plate reader (e.g., Varioskanlux, ThermoScientific) at an excitation wavelength of about 480 nm and an emission wavelength of about 520 nm. The encapsulation efficiency can be determined by using the percentage ratio of non-encapsulated RNA (TE sample) over the total RNA (TX sample), then subtracting from 100 to find the percentage of encapsulated RNA amount.
as §2

[4] = Apparent pKa of LNPs (TNS assay); format: physicochemical; conditions: LNP, hEPO mRNA, Lipid:Cholesterol:DSPC:PEG-2k 50:38.5:10:1.5, N:P 6
Description: as §1
The apparent pKa of lipid nanoparticle composition is measured using a 6-(p-Toluidino)-2-naphthalenesulfonic acid (TNS) assay. Briefly, lipid nanoparticles (10 uL of approximately 0.5 mg mRNA/mL) and TNS probe (40 uL of 1 mM stock) are added to 750 uL of TNS buffer (25 mM citric acid, 20 mM sodium phosphate, 150 mM NaCl, and 20 mM ammonium acetate), at a pH ranging from 2 to 10. 20 uL of each sample are added to 80 uL of buffer at each pH in a 96-well plate. The plate is incubated for 10 minutes, and the fluorescence signal is measured by means of a spectrofluorometer (Varioskanlux, ThermoScientific) with excitation/emission settings of λex=321 nm, and λem=445 nm. The apparent pKa of the nanoparticle composition is determined by deriving the pH at which 50% of the pH 2 fluorescent signal is present. All datapoints are normalized to the fluorescent signal at pH 2.

C57BL/6 female mice = assay: In vivo hEPO expression of hEPO mRNA LNPs, serum ELISA; conditions: LNP 50:38.5:10:1.5, N:P 6, 0.2 mg/kg hEPO mRNA, tail vein injection, blood serum 6 h post-administration
Procedure: In this example, messenger RNA molecules encoding hEPO proteins were formulated in lipid nanoparticles for delivery in vivo. The lipid nanoparticle (LNP) formulations comprised of a lipid composition of ionizable lipid: helper lipid: cholesterol. DMG-PEG2k at 50:10:38.5:1.5 mol %. The lipid mixture in ethanol was mixed with hEPO mRNA in RNA acidifying buffer (10 mM citrate, pH 4) at an ionizable-lipid-nitrogen-to-RNA-phosphate ratio (N:P) of 6 using a microfluidic device (Precision NanoSystems, Inc.) at a combined flow rate of 10 mL/min (7.5 mL/min for aqueous buffer, RNA and 2.5 mL/min for ethanol, lipid mix). The resulting particles were neutralized by buffer exchange into Dulbecco's phosphate buffer solution via PD-10 desalting column. The neutralized particles were concentrated using 100 kDa AMICON® Ultra centrifugal filters and sterile filtered using 0.2 um syringe filters. Samples were then characterized and diluted as needed (3 replicates).
The in vivo studies were performed in C57BL/6 female mice at 6 to 8 weeks weighing in at approximately 20 g. The LNPs formulated with different ionizable lipids at 0.2 mg/kg of hEPO mRNA were administered by tail vein injection and animals were euthanized at 6 h post-administration for blood serum sample collection. The hEPO levels from the samples were analyzed and cross-compared by enzyme-linked immunoassay (ELISA) according to manufacturer's protocol. The hEPO expression levels for each of the LNPs was compared to a control LNP comprising SM102 (DC Chemicals Cat. No. DC52025). (FIG. 1).

Structure (SMILES)	PDI [1]	Size [1] [nm]	Zeta [2] [mV]	EE [3] [%]	pKa [4]	hEPO (C57BL/6 female mice) [ng/mL]
CCCCCCCCCOP(=O)(NCCCCCN(CCO)CCCCCCCC(=O)OC(CCCCCCCC)CCCCCCCC)OCC (stereo not drawn) [Lipid 11]	0.08	94.4	2.6	99.7	7.3	63.81
CCCCCCCCCCCCCCOC(=O)CCN(CCO)CCCCCCCC(=O)OC(CCCCCCCC)CCCCCCCC [Lipid 1]	0.267	65.8	−8.8	97.9	5.1	0.00
